Structures can show the parent of a compound that is named as a salt.

The source of these data is patent US7598384B2, “Tetrahydroquinolinones and their use as antagonists of metabotropic glutamate receptors” (Merz Pharma GmbH & Co. KGAA, priority 2004, dated 2009).

In general, melting point refers to the temperature, or range, at which the solid turns liquid. `CC(C)COc1ccc2c(n1)CC(C)(C)CC2=O.Cl` showed a melting point of 157 to 158 °C.

In the case of `CC1(C)CC(=O)c2ccc(OCc3ccccc3)nc2C1.Cl`, the melting point was 87 to 88 °C.

As for `CC1(C)CC(=O)c2ccc(NCc3ccccc3)nc2C1.Cl`, the melting point is 215 to 216 °C.

`CC1(C)CC(=O)c2ccc(CCc3ccccc3)nc2C1.Cl` had a melting point of 173 to 175 °C.

As for `CC1(C)CC(=O)c2ccc(Cc3ccccc3)nc2C1.Cl`, the melting point lay in the range of 202 to 204 °C.

Consider `Cl.O=C1CCCc2nc(Cc3ccccc3)ccc21`, for which the melting point lay in the range of 185 to 187 °C.

With `COc1ccccc1CCc1ccc2c(n1)CCCC2=O.Cl`, the melting point was in the range of 160 to 162 °C.

For `Cl.O=C1CCCc2nc(C34CC5CC(CC(C5)C3)C4)ccc21`, the melting point fell in the range of 214 to 216 °C.

Compound `CC1(C)CC(=O)c2ccc(C34CC5CC(CC(C5)C3)C4)nc2C1.Cl` showed a melting point of 210 to 212 °C.

Compound `CC1(C)CC(=O)c2cc(C#N)c(NCc3ccccc3)nc2C1.Cl` showed a melting point of 163 to 164 °C.

Take `CC1(C)CC(=O)c2ccc(OC3CCCCC3)nc2C1.Cl`: the melting point was 126 to 127 °C.

`O=C1CC2(CCCCC2)Cc2nc(OCc3ccccc3)ccc21` (as salt: hydrochloride) [Example 25, 2-Benzyloxy-7,7-pentamethylene-7,8-dihydro-6H-quinoline-5-one hydrochloride] displayed a melting point of 276 to 277 °C.

As to `O=C1CC2(CCCCC2)Cc2nc(C34CC5CC(CC(C5)C3)C4)ccc21` (as salt: hydrochloride) [Example 27, 2-Adamantan-1-yl-7,7-pentamethylene-7,8-dihydro-6H-quinoline-5-one hydrochloride], the melting point lay in the range of 221 to 222 °C.

Compound `CCCCCCc1ccc2c(n1)CC(c1ccc(N(C)C)cc1)CC2=O` (stereo not drawn) (as salt: hydrochloride) [Example 32, 7-(4-Dimethylamino-phenyl)-2-hexyl-7,8-dihydro-6H-quinolin-5-one dihydrochloride] displayed a melting point of 195 to 196 °C.

Turning to `CC1(C)CCc2nc(C34CC5CC(CC(C5)C3)C4)ccc2C1=O` (as salt: hydrochloride) [Example 41, 2-Adamantan-1-yl-6,6-dimethyl-7,8-dihydro-6H-quinolin-5-one hydrochloride], the melting point is 203 to 204 °C.

Turning to `CCCCCCc1ccc2c(n1)C(C)CC(C)(C)C2=O` (stereo not drawn) (as salt: hydrochloride) [Example 55, 2-Hexyl-6,6,8-trimethyl-7,8-dihydro-6H-quinolin-5-one hydrochloride], the melting point is 199 to 200 °C.

`COc1cccc(-c2ccc3c(n2)CC2(CCCC2)CC3=O)c1` (as salt: hydrochloride) [Example 59, 2-(3-Methoxy-phenyl)-7,7-tetramethylene-7,8-dihydro-6H-quinolin-5-one hydrochloride] had a melting point of 233 to 234 °C.

The compound `CCCC1CCc2nc(-c3ccc(OC)cc3)ccc2C1=O` (stereo not drawn) (as salt: hydrochloride) [Example 60, 2-(4-Methoxy-phenyl)-6-propyl-7,8-dihydro-6H-quinolin-5-one hydrochloride] returned a melting point of 212 to 213 °C.

Take `CCC1CC(=O)c2ccc(-c3ccc(OC)cc3)nc2C1` (stereo not drawn) (as salt: hydrochloride) [Example 70, 7-Ethyl-2-(4-methoxy-phenyl)-7,8-dihydro-6H-quinolin-5-one hydrochloride]: the melting point was in the range of 232 to 233 °C.

As for `CCCCSc1nc2c(cc1C#N)C(=O)CC(C)(C)C2` [Example 1, 2-Butylsulfanyl-7,7-dimethyl-5-oxo-5,6,7,8-tetrahydroquinoline-3-carbonitrile], the melting point was 50 to 52 °C.

In the case of `CCCSc1nc2c(cc1C#N)C(=O)CC(C)(C)C2` [Example 2, 7,7-Dimethyl-5-oxo-2-propylsulfanyl-5,6,7,8-tetrahydroquinoline-3-carbonitrile], the melting point fell in the range of 100 to 102 °C.

Consider `CC(C)Sc1nc2c(cc1C#N)C(=O)CC(C)(C)C2` [Example 3, 2-Isopropylsulfanyl-7,7-dimethyl-5-oxo-5,6,7,8-tetrahydroquinoline-3-carbonitrile], for which the melting point lay within 135 to 136 °C.

Compound `C=C(C)CSc1nc2c(cc1C#N)C(=O)CC(C)(C)C2` [Example 4, 7,7-Dimethyl-2-(2-methylallysulfanyl)-5-oxo-5,6,7,8-tetrahydroquinoline-3-carbonitrile] had a melting point of 78 to 79 °C.

Take `CC(C)CSc1nc2c(cc1C#N)C(=O)CC(C)(C)C2` [Example 5, 2-Isobutylsulfanyl-7,7-dimethyl-5-oxo-5,6,7,8-tetrahydroquinoline-3-carbonitrile]: the melting point was 75 to 76 °C.

As to `C=C(C)CSc1nc2c(cc1C#N)C(=O)CCC2` [Example 6, 2-(2-Methylallylsulfanyl)-5-oxo-5,6,7,8-tetrahydroquinoline-3-carbonitrile], the melting point was 85 to 86 °C.

`CC1(C)CC(=O)c2cc(C#N)c(N3CCCCC3)nc2C1` [Example 7, 7,7-Dimethyl-5-oxo-2-piperidin-1-yl-5,6,7,8-tetrahydro-quinoline-3-carbonitrile] registered a melting point of 99 to 100 °C.

Take `COc1ccc(Nc2ccc3c(n2)CC(C)(C)CC3=O)cc1` [Example 86, 2-(4-Methoxy-phenylamino)-7,7-dimethyl-7,8-dihydro-6H-quinolin-5-one]: the melting point is 149 to 150 °C.

Compound `O=C1c2ccc(Nc3ccccc3)nc2CC2CCCCC12` (stereo not drawn) [Example 111, 2-Phenylamino-6,7,8,9,9a,10-hexahydro-5aH-benzo[g]quinolin-5-one] registered a melting point of 214 to 216 °C.

Consider `CC(Nc1ccc2c(n1)CC1CCCCC1C2=O)c1ccccc1` (stereo not drawn) [Example 112, 2-(1-Phenyl-ethylamino)-6,7,8,9,9a,10-hexahydro-5aH-benzo[g]quinolin-5-one], for which the melting point is 156 to 158 °C.

In the case of `O=C1c2ccc(N3CCN(c4ccccc4)CC3)nc2CC2CCCCC12` (stereo not drawn) [Example 114, 2-(4-Phenyl-piperazin-1-yl)-6,7,8,9,9a,10-hexahydro-5aH-benzo[g]quinolin-5-one], the melting point was 164 to 166 °C.
